# Source: US8383111B2, “Inotropic antibodies and therapeutic uses thereof” (priority 2002, dated 2013)
# “Also recorded” adds a separate entry of the source. Read-outs that look alike come from different tables or passages of the source.
# Assays:
# (Na^++K^+)-ATPase [1] = experiment: Immunofluorescent staining of antibody in rat cardiac myocytes and CV-1 cells; type: binding, rat; African green monkey; settings: for competition with the Jianye-2 antibody binding site (Jianye-2 antibody staining in presence of competitor): 1 mM ouabain or strophanthidin
# Source text: FIG. 1 (which includes FIGS. 1A through 1F) are photographs showing the immunofluorescent staining of Jianye-2 antibody in rat cardiac myocytes and African green monkey CV-1 cells, FIGS. 1A-1B are photographs of the confocal image of rat cardiac myocytes in the presence of Jianye-2 (FIG. 1A) or with both Jianye-2 antibody and peptide blocker (FIG. 1B). […] FIG. 1D is a photograph of a single CV-1 cell image at 3000× FIGS. 1E-1F are photographs showing Jianye-2 antibody staining in the presence of either 1 mM ouabain (FIG. 1E) or strophanthidin (FIG. 1F).
# Confocal image of rat cardiac myocytes in the presence of Jianye-2, shown in FIG. 1A or with both Jianye-2 antibody and peptide blocker (FIG. 1B). […] Jianye-2 antibody staining in the presence of either 1 mM ouabain (FIG. 1E) or strophanthidin (FIG. 1F). […] Time runs from left to right. […] Columns B, C, D show the results obtained 10, 20, 30 min after administration of either buffer (upper panel) or Jianye-2 antibody (lower panel, 85 nM). Enzyme activity was monitored in cell homogenates under the same experimental condition. […] The data represent a mean of 12 independent experiments. […] The data represent a mean of four independent experiments.
# heart failure rats = experiment: Immunization with KX-1 peptide vaccine in heart failure rat model (echocardiography); type: in vivo; settings: peptide injected as vaccine, TiterMax Gold adjuvant, vs control heart failure rat without immunization
# Description: FIG. 9 is a graph showing the effect of immunization with KX-1 on the rat cardiac heart failure function. The peptide DVEDSYGQQWTYEQR (SEQ ID NO: 2) was injected into the animal as a vaccine to reduce the rate of progression of heart failure in the heart failure rat model. TiterMax Gold was used as an adjuvant throughout the experiment.
# Echocardiography (Echo) uses sound waves to form a picture of the heart valves and heart muscle. The Echo machine sends sound waves to a transducer (a sound sensitive instrument) that is placed on the animal's chest. The sound waves are reflected by the heart was (muscle) and heart valves and back to the transducer, which changes the sound into a picture. Gel is applied on the rat chest and a transducer is placed over the heart area. Heart structures are examined by changing the direction of the transducer. The sound waves cause no discomfort. Thus, an Echo detects the changes and provides information about heart chamber size, wall motion, valve movements, and structural changes in and around the heart.
# [2] = system: mouse heart left ventricle; experiment: Measurement of mice cardiac contraction in vivo (pressure-volume catheter)
# Description: Male wild-type mice (CD1, Charles River, 32-40 g) were utilized for this study. Mice In vivo cardiac functions were assessed by pressure-volume catheter in anesthetized mice. Briefly, mice were induced with 5% isofluorane, anesthetized with an intraperitoneal injection of urethane (300-500 mg/kg), etomidate (5 mg/kg) and morphine (0.5 mg kg-1), and intubated with a blunt 19 G needle inserted via tracheostomy. […] Ventilation was initiated with 100% oxygen using a custom-designed, constant flow ventilator delivering a tidal volume of […] at 120 breaths per min. The left external jugular vein was cannulated with a 30 G needle connected to an infusion pump. Modest volume expansion was provided (150 µL of 12.5% human albumin) at 50 µL/min. Following stabilization, a lateral incision was made at the xyphoid cartilage to expose the left ventricular (LV) apex. The 1.4F pressure-volume catheter (SPR-839, Millar Instruments Inc., Houston, Tex., USA) was inserted via an apical needle puncture with a 26 G needle, and advanced along the cardiac long axis. A 2F pacing catheter (NuMed, Nicholville, N.Y., USA) was placed in the esophagus, dorsal to the left atrium. Atrium was paced using 5-7 V, 2 ms pulses (SD25, Grass Instruments, Quincy, Mass., USA). Calibration of the volume signal was performed using a 5-10 µL bolus of 30% hypertonic saline injected into the jugular vein to determine the signal offset and ultrasound flow probe (AT01RB, Transonic Systems Inc.) placed around the thoracic aorta to determine signal gain. Data were digitized at 2 kHz and stored to disk for off line analysis.
# Mice cardiac atria pacing were maintained at constant beating (600 beats/min). The hearts were infused with PBS (5 µl/min) for 10 min prior for administration of SSA78 infusion (5 µl/min) for 30 minutes and following by 10 min PBS washout at 5 µl/min. […] Steady-state indices were derived from 10 consecutive averaged beats. Cardiac preload was indexed as the left ventricular end-diastolic volume (EDV) and end-diastolic pressure (EDP). Cardiac afterload was evaluated as effective arterial elastance (Ea; ratio of LV systolic pressure to stroke volume). This parameter is not preload dependent and had been validated to closely approximate total afterload, which incorporates systemic vascular resistance, aortic impedance, and the reflected wave properties of the vasculature. Myocardial contractility was indexed by cardiac output (CO), dPdt max, dPdt max normalized to instantaneous developed pressure (dPdt max/IP), the load-independent end-systolic pressure-volume relationship (Ees) and preload recruitable stroke work (PRSW). Diastolic perform performance was measured by dPdt min and the time constant of ventricular relaxation.
# rat cardiac myocytes = experiment: Measurement of intracellular Ca2+ transients; type: cell-based; settings: rat heart cells; mean of 12 independent experiments
# Description: Rat cardiac myocytes were loaded with 50 µg of a cell permeable fluorescent Ca.2+ probe, Indo-1/acetoxymethyl-ester (Indo-1/AM, Molecular Probes, Inc., Eugene, Oreg.) for 10 min and then resuspended in HEPES-buffered solution in the presence of 1 mM Ca.2+ and stored in the dark at room temperature for 60 min before be utilized for the experiments. The Indo-1 loaded cells were placed on the stage of a modified inverted microscope (model IM-35; Carl Zeiss, Inc., Thornwood, N.Y.) equipped for simultaneous recording of Indo-1 fluorescence and cell length. Cells were electrically paced at 0.5 Hz at room temperature and the excitation wavelength was selected by a 350-nm interference filter (bandwidth 10 nm; Oriel Corp., Stratford, Conn.). The ratio of emission intensity at 410 nm to that at 490 nm was computed offline as an index of intracellular Ca.2+ (Cai^2+) transient. The peak amplitude of the transient is defined as the difference of the 410:490 fluorescence ratio before and after electrical stimulation with or without antibody.
# (Na^++K^+)-ATPase [3] = target: T1, (Na^++K^+)-ATPase (Rattus norvegicus, UniProt P06685); experiment: Determination of (Na^++K^+)-ATPase activity; type: biochemical; settings: monitored in cell homogenates under the same experimental condition as contraction
# T1 construct: Rat cardiac sarcolemmal (SL) vesicles were isolated from rat heart muscle by sucrose flotation method; from tissue; host or cells: rat heart muscle (sarcolemmal vesicles, SDS treatment and sucrose gradient)
# rat ventricular myocytes = experiment: Measurement of cell contraction in isolated rat ventricular myocytes; type: cell-based
# Description: Ventricular cardiac myocytes were isolated from adult Sprague-Dawley rats (2-3 months old; weight 225-300 g) using standard enzymatic techniques. Briefly, following anesthesia (sodium pentobarbital, 100 mg/kg), the heart was quickly removed from the chest and aortic perfused at constant pressure (100 cmH2O) at 37° C. for 3 minutes with a Ca^2+-free bicarbonate-based buffer containing 120 mM NaCl, 5.4 mM MgSO4, 1.2 mM NaH2PO4, 5.6 mM glucose, 20 mM NaHCO3, and 5 mM taurine, in the presence of O2 (95%)-CO2 (5%). The enzymatic digestion was initiated by adding collagenase (Worthington Type II, 1 mg/ml) to the perfusion solution. Calcium (50 µM) was added to the enzyme solution when the heart became swollen. About 7 minutes later, the left ventricle was quickly removed, cut into several pieces, and further digested on a shaker (60-70 rpm) for 10 minutes in the same enzyme solution. The supernatant containing the dispersed myocytes was filtered into a test tube and gently centrifuged at 500 rpm for 1 minute. […]
# Cardiac myocytes were isolated from wild-type adult Sprague-Dawley rats, using a standard enzymatic method described previously (Xu, K. Y., et al., (2002) BBRC, 289:167-172). […] Cell length was monitored from the bright-field image (650 nm to 750 nm red light illumination) by an optical edge-tracking method using a photodiode array (model 1024 SAQ, Reticon) with a 3-ms time resolution. […]
compound,measurement,setting,value
"C[C@@H]1O[C@@H](O[C@H]2C[C@@H](O)[C@]3(CO)[C@H]4[C@H](O)C[C@]5(C)[C@@H](C6=CC(=O)OC6)CC[C@]5(O)[C@@H]4CC[C@]3(O)C2)[C@H](O)[C@H](O)[C@H]1O [ouabain, reference compound]",competition with the Jianye-2 antibody binding site (Jianye-2 antibody staining in presence of competitor),(Na^++K^+)-ATPase [1],compete with the Jianye-2 antibody binding site
"C[C@]12CC[C@H]3[C@@H](CC[C@]4(O)C[C@@H](O)CC[C@]34C=O)[C@@]1(O)CC[C@@H]2C1=CC(=O)OC1 [strophanthidin, reference compound]",competition with the Jianye-2 antibody binding site (Jianye-2 antibody staining in presence of competitor),(Na^++K^+)-ATPase [1],compete with the Jianye-2 antibody binding site
"DVEDSYGQQWTYEQR [peptide of the H7-H8 domain of (Na++K+)-ATPase alpha-subunit, injected as vaccine to generate endogenous KX-1 antibody]",rate of progression of heart failure (cardiac function),heart failure rats,significantly decreased the progression of heart failure; also recorded: significantly delayed the rate of the progression of heart failure
Jianye-2 antibody: polyclonal rabbit IgG recognizing the RSATEEEPPNDD (SEQ ID NO: 1) peptide (H1-H2 domain) of the alpha-subunit of (Na++K+)-ATPase,binding to the (Na++K+)-ATPase on the surface of the cell membrane (immunofluorescent staining),(Na^++K^+)-ATPase [1]; rat cardiac myocytes and African green monkey CV-1 cells,specifically binds; also recorded: binds to its antigenic site
same,first order rate constant of increase in mouse heart contraction,[2],1.06 %/min
same,first order rate constant of increase in mouse heart contraction,[2]; 3.4 µM antibody,1.06 %/min
same,"mouse heart contraction, percent of background control (0 min as 100%)","[2]; 3.4 µM antibody, 5 min",108(.+−.5.3) %
same,"mouse heart contraction, percent of background control (0 min as 100%)","[2]; 3.4 µM antibody, 10 min",113(.+−.7) %
same,"mouse heart contraction, percent of background control (0 min as 100%)","[2]; 3.4 µM antibody, 15 min",116(.+−.10) %
same,"mouse heart contraction, percent of background control (0 min as 100%)","[2]; 3.4 µM antibody, 20 min",122(.+−.9.0) %
same,first order rate constant of increase in mouse heart contraction,[2]; 6.0 µM antibody,2.16 %/min
same,"mouse heart contraction, percent of background control (0 min as 100%)","[2]; 6.0 µM antibody, 5 min",115(.+−.9.0) %
same,"mouse heart contraction, percent of background control (0 min as 100%)","[2]; 6.0 µM antibody, 10 min",127(.+−.21) %
same,"mouse heart contraction, percent of background control (0 min as 100%)","[2]; 6.0 µM antibody, 15 min",137(.+−.16) %
same,"mouse heart contraction, percent of background control (0 min as 100%)","[2]; 6.0 µM antibody, 20 min",143(.+−.30) %
same,first order rate constant of increase in mouse heart contraction,[2]; 6.0 mM antibody,2.16 %/min
same,"mouse heart contraction, percent of background control (0 min as 100%)","[2]; 6.0 mM antibody, 5 min",115(.+−.9.0) %
same,"mouse heart contraction, percent of background control (0 min as 100%)","[2]; 6.0 mM antibody, 10 min",127(.+−.21) %
same,"mouse heart contraction, percent of background control (0 min as 100%)","[2]; 6.0 mM antibody, 15 min",137(.+−.16) %
same,"mouse heart contraction, percent of background control (0 min as 100%)","[2]; 6.0 mM antibody, 20 min",143(.+−.30) %
same,"mouse heart contraction, percent of background control (0 min as 100%)",[2]; 5 min,108(.+−.5.3) %
same,"mouse heart contraction, percent of background control (0 min as 100%)",[2]; 10 min,113(.+−.7) %
same,"mouse heart contraction, percent of background control (0 min as 100%)",[2]; 15 min,116(.+−.10) %
same,"mouse heart contraction, percent of background control (0 min as 100%)",[2]; 20 min,122(.+−.9.0) %
same,positive inotropic effect (ventricular pressure-volume loops),"[2]; normal mouse heart left ventricle, 6.0 µM in PBS, pH 7.2, total 150 ml at 5 ml/min",dramatically induced a reversible positive inotropic effect
same,intracellular Ca2+,rat cardiac myocytes,markedly increased
same,(Na++K+)-ATPase activity,(Na^++K^+)-ATPase [3],without inhibiting
same,rat heart cell contraction (time course),"rat ventricular myocytes; 85 nM antibody, 10, 20, 30 min after administration, vs buffer",enhanced rat heart cell contraction
same,EC50,"rat ventricular myocytes; dose-dependent contractile response in rat ventricular myocytes, mean of four independent experiments, read-out: half maximal contractile response (EC50)",35 nM
